What was measured:
[1] = molecular target: AKT1 (human) (UniProt P31749); conditions: compound 10.0 µM
[2] = molecular target: PRKAA2 (human) (UniProt P54646); conditions: compound 10.0 µM
[3] = molecular target: FGFR1 (human) (UniProt P11362); conditions: compound 10.0 µM
[4] = molecular target: PRKAA1 (human) (UniProt Q13131); conditions: compound 10.0 µM
[5] = molecular target: PIM1 (human) (UniProt P11309); conditions: compound 10.0 µM
[6] = tested on: PRKACA (mouse); conditions: compound 10.0 µM; accession and sequence are those of the human protein

Chain of FGFR1 (human) (P11362 whole entry, looked up): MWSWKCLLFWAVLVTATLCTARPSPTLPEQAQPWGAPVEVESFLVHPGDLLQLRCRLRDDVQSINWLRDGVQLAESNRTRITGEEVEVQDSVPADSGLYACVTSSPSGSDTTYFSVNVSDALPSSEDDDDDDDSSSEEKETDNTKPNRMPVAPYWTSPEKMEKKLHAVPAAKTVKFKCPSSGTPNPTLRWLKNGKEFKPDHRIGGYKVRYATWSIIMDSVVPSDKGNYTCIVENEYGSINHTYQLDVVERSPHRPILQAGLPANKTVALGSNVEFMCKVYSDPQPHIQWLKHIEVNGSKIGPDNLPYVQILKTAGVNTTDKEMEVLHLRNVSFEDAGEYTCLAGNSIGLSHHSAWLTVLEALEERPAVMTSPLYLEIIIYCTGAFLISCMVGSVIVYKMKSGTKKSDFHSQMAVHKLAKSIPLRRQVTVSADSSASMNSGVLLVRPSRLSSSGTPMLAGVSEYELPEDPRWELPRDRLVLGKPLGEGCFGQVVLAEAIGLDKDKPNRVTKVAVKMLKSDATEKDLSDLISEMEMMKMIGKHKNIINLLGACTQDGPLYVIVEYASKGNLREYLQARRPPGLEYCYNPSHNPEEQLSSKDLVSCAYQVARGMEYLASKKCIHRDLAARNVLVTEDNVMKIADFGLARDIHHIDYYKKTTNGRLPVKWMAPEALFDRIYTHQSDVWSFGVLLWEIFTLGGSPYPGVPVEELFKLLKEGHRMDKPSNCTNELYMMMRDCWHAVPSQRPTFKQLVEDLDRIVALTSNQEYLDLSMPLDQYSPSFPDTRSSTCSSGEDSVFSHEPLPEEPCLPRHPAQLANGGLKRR
Chain of PRKAA2 (human) (P54646 whole entry, looked up): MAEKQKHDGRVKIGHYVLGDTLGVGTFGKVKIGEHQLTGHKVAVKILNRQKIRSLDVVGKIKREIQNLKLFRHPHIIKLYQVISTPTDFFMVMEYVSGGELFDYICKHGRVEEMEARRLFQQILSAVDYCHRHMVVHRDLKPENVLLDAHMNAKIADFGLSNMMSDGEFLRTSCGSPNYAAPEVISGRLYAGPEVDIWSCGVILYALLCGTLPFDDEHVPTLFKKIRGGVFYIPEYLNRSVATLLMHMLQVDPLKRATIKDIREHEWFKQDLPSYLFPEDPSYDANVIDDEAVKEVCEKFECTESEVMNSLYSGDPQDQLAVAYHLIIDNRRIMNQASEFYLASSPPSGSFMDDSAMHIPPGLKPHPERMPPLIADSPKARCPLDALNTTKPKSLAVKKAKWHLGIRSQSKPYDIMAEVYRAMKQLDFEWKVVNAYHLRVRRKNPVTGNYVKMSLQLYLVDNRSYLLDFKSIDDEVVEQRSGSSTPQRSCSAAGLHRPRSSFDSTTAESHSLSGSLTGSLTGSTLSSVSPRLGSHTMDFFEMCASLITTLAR
Chain of AKT1 (human) (P31749 whole entry, looked up): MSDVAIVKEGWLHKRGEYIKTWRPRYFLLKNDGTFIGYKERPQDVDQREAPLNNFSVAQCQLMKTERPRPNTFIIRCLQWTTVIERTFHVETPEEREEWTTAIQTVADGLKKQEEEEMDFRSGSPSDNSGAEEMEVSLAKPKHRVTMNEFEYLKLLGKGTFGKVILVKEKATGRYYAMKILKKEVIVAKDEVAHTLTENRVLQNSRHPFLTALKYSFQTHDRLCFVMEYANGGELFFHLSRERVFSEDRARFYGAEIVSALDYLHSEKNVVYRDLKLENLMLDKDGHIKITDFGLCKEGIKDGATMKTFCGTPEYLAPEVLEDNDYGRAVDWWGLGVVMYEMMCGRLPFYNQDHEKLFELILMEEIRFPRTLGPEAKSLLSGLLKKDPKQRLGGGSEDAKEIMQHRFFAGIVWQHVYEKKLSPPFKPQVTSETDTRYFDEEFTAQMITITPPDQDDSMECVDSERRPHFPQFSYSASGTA
Chain of PIM1 (human) (P11309 whole entry, looked up): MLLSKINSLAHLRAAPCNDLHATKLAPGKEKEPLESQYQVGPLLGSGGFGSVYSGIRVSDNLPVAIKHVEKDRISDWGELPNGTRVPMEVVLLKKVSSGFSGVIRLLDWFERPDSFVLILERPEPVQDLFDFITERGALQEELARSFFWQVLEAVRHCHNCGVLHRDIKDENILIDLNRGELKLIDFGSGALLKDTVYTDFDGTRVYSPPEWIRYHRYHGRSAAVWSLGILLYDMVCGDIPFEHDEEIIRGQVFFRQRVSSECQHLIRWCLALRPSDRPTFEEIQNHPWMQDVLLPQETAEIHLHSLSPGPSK
Chain of PRKAA1 (human) (Q13131 whole entry, looked up): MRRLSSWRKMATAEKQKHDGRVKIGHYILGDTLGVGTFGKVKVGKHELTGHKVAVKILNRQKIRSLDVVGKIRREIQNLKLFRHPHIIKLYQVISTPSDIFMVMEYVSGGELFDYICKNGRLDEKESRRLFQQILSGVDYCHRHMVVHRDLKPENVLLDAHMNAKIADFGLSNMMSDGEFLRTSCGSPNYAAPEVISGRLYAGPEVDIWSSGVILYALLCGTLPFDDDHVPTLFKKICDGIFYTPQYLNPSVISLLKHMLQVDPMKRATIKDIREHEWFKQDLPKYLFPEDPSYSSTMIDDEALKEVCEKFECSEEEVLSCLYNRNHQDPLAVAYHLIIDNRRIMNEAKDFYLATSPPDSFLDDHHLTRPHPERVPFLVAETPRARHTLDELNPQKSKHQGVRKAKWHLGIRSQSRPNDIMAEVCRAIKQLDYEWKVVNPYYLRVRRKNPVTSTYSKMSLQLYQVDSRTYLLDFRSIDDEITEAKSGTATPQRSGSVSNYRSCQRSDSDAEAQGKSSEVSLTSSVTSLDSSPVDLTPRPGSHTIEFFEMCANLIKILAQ

| SMILES | inhibition [1] [%] | inhibition [2] [%] | inhibition [3] [%] | inhibition [4] [%] | inhibition [5] [%] | inhibition [6] [%] |
| --- | --- | --- | --- | --- | --- | --- |
| O=S(=O)(c1cccc2c(Cl)cccc12)N1CCCNCC1 | 2 | 0 | 1 | 0 | 31 | 3 |
| Cn1cc(C2=C(c3ccc(Cl)cc3Cl)C(=O)NC2=O)c2ccccc21 | 3 | 5 | 12 | 0 | 32 | 5 |
| N#C/C(=C\c1ccc(O)c(O)c1)C(=O)NCc1ccccc1 | 0 | 0 | 0 | 0 | 0 | 3 |
| O=C(c1ccc(Nc2nccc(-c3cc4ccccc4s3)n2)cc1)N1CCC(N2CCCC2)CC1 | 0 | 75 | 30 | 63 | 22 | 12 |
| c1cc(-c2cnn3cc(-c4ccc(OCCN5CCCCC5)cc4)cnc23)ccn1 | 0 | 49 | 21 | 45 | 0 | 0 |
| C/C(O)=C(\C#N)C(=O)Nc1cc(Br)ccc1Br | 0 | 0 | 8 | 0 | 23 | 7 |
| CC(C)[C@H](CO)Nc1nc(Nc2ccc(C(=O)O)c(Cl)c2)c2ncn(C(C)C)c2n1 | 0 | 0 | 59 | 0 | 10 | 21 |
| O=C(Nc1cc(C(F)(F)F)cc(C(F)(F)F)c1)c1cc(Cl)ccc1O | 0 | 1 | 0 | 0 | 0 | 0 |
| Cn1cc(C2=C(c3cn(CCCSC(=N)N)c4ccccc34)C(=O)NC2=O)c2ccccc21 | 62 | 23 | 31 | 25 | 96 | 62 |
| O=S(=O)(c1cccc2cnccc12)N1CCCNCC1 | 0 | 0 | 4 | 0 | 4 |  |
| CCN(CC)CCCCN1c2ccccc2Oc2ccc(Cl)cc21 | 0 | 0 | 0 | 0 |  | 0 |
| O=C1NC(=O)c2c1c1c3ccccc3[nH]c1c1[nH]c3ccccc3c21 | 22 | 69 | 44 | 60 | 95 | 27 |
| CC(=O)c1c(O)c(C)c(O)c(Cc2c(O)c3c(c(C(=O)/C=C/c4ccccc4)c2O)OC(C)(C)C=C3)c1O | 24 | 0 | 45 | 0 | 21 | 16 |
| N#C/C(=C(/N)Sc1ccc(N)cc1)c1ccccc1C(F)(F)F | 0 | 0 | 0 | 0 | 5 | 2 |
| COc1cc2nccc(Oc3ccc(NC(=O)Nc4ccc(F)cc4F)c(F)c3)c2cc1OC | 6 | 0 | 68 | 0 | 12 | 16 |
| CO[C@@H]1[C@H](N(C)C(=O)c2ccccc2)C[C@H]2O[C@]1(C)n1c3ccccc3c3c4c(c5c6ccccc6n2c5c31)C(=O)NC4 | 55 |  |  | 64 | 73 | 63 |
| CN(C)CCCn1cc(C2=C(c3c[nH]c4ccccc34)C(=O)NC2=O)c2ccccc21 | 5 | 20 | 50 | 11 |  | 26 |
| O=S(=O)(c1cccc2c(O)nccc12)N1CCCNCC1 | 0 | 0 |  | 0 | 19 | 19 |

Further lines, results first:

| inhibition [1] [%] | inhibition [2] [%] | inhibition [3] [%] | inhibition [4] [%] | inhibition [5] [%] | inhibition [6] [%] | SMILES |
| --- | --- | --- | --- | --- | --- | --- |
| 1 | 0 | 8 | 0 | 5 | 0 | NC(=O)c1ccc(-c2nc(-c3ccccn3)c(-c3ccc4c(c3)OCO4)[nH]2)cc1 |
| 0 | 0 | 0 | 0 | 0 | 0 | COc1nccc(-c2c(-c3ccc(F)cc3)ncn2[C@H]2CC[C@H](O)CC2)n1 |
| 5 | 0 | 0 | 0 | 9 | 11 | Oc1ccc(-c2nc(-c3ccc(F)cc3)c(-c3ccncc3)[nH]2)cc1 |
| 18 | 1 | 60 | 1 | 9 | 32 | CC(C)(C)n1nc(-c2cccc3ccccc23)c2c(N)ncnc21 |
| 0 | 13 | 9 | 2 | 0 | 0 | O=C1NC(=O)C(c2ccccc2[N+](=O)[O-])=C1Nc1ccc(O)c(Cl)c1 |
| 0 | 0 | 9 | 0 | 11 | 1 | c1ccc(-c2n[nH]cc2-c2ccnc3ccccc23)nc1 |
| 2 | 0 | 58 | 0 | 0 | 19 | Cc1ccc(-c2nn(C(C)(C)C)c3ncnc(N)c23)cc1 |
| 0 | 22 | 26 | 32 | 0 | 0 | Cn1cc(/C=C2/C(=O)Nc3cccnc32)c2ccccc21 |
| 0 | 0 | 28 | 5 | 0 | 7 | CC(C)[C@H](CO)Nc1nc(Nc2cccc(Cl)c2)c2ncn(C(C)C)c2n1 |
| 0 | 2 | 0 | 0 | 0 | 0 | COc1cc(CC2C(=O)OC[C@@H]2Cc2ccc(OC)c(OC)c2)ccc1O (stereo not given in full) |
| 39 | 32 | 37 | 7 | 50 | 21 | Fc1ccc(Cl)cc1-c1nc(Nc2ccncc2)c2nccnc2n1 |
| 21 | 22 | 14 | 17 | 0 |  | O=S(=O)(NCCNC/C=C/c1ccc(Br)cc1)c1cccc2cnccc12 |
| 0 | 0 | 4 | 0 | 74 | 0 | O=c1cc(N2CCOCC2)oc2c1ccc1ccccc12 |
| 0 | 0 | 13 | 0 | 27 | 1 | COc1cc2ncnc(Nc3ccc(F)c(Cl)c3)c2cc1OCCCN1CCOCC1 |
| 19 | 0 | 32 | 0 | 73 | 9 | O=C1Nc2ccc(I)cc2/C1=C/c1cc(Br)c(O)c(Br)c1 |
| 0 | 0 | 4 | 0 | 0 | 0 | Brc1c(Br)c(Br)c2[nH]nnc2c1Br |
| 24 | 0 | 22 | 0 | 23 | 11 | Cc1cc2nc3c(=O)[nH]c(=O)nc-3n(C)c2cc1C=O |
| 12 | 7 | 57 | 7 | 31 | 14 | COc1cc2ncn(-c3cc(OCc4ccccc4C(F)(F)F)c(C(N)=O)s3)c2cc1OC |
| 0 | 0 | 10 | 13 | 1 | 2 | Cc1cc(F)c(Nc2ncnc3cc(OCc4ccccc4)ccc23)cc1O |
| 0 | 0 | 4 | 2 | 0 | 5 | O=c1[nH]nc(Sc2ncc([N+](=O)[O-])s2)n1-c1ccc2c(c1)OCCO2 |
| 0 | 0 | 11 | 0 | 0 | 4 | Cc1ccccc1C(=O)c1ccc(Nc2ccc(Br)cc2N)cc1Cl |
| 11 | 1 | 11 | 0 | 3 | 0 | CS(=O)c1ccc(-c2nc(-c3ccc(F)cc3)c(-c3ccncc3)[nH]2)cc1 (stereo not given) |
| 0 | 8 | 7 | 2 | 0 | 2 | COc1cc2ncnc(Nc3ccc(Cl)cc3F)c2cc1OC |
| 28 | 84 | 50 | 82 | 0 | 2 | CCN(CC)CCNC(=O)c1c(C)[nH]c(/C=C2\C(=O)Nc3ccc(F)cc32)c1C |
| 0 | 3 |  | 5 | 6 | 13 | CC(C)[C@H](CO)Nc1nc(Nc2cc(N)cc(Cl)c2)c2ncn(C(C)C)c2n1 |
